Data as given in US8748496B2, “Methods of treatment of hyperuricemia and associated disease states” (Elan Pharmaceuticals, Inc., priority 2008, dated 2014).
Entries after “also recorded” stand apart in the source; their conditions may differ.

Tested on: serum uric acid levels
Test: Phase 1 open-label multiple dosing study, serum uric acid in healthy adult subjects
Assay type: in vivo, human
Settings: 2000 mg BID oral 10 days; for uric acid, Mean: N=8
Protocol: A Phase 1 single site, open-label multiple dosing study evaluating a scyllo-inositol formulation was conducted in healthy adult subjects. Approximately 8 healthy male subjects received 2000 mg of scyllo-inositol twice daily (4-500 mg tablets orally administered twice a day) for 10 days. Blood samples were collected 12 hours prior to the first dose (day 0) and on days 6, 14, and 21. Scyllo-inositol 500 mg capsules were BSE/TSE-free soft gelatin, white, opaque capsules and no excipients were used in the finished product. Capsules were supplied in 60-mL, oblong, white pharmaceutical high density polyethylene (HDPE) bottles with white caps. Each 60-mL bottle contained 30 capsules of 500 mg strength scyllo-inositol.

[1] = Baseline (Day 0, before first dose)

Compound: O[C@H]1[C@H](O)[C@@H](O)[C@H](O)[C@@H](O)[C@@H]1O [scyllo-inositol, 1,2,3,4,5,6-cyclohexanehexyl, (1alpha,2beta,3alpha,4beta,5alpha,6beta)]
- uric acid, Max [1]: 375 micromole per liter
- uric acid, Median [1]: 300.4 micromole per liter
- uric acid, Min [1]: 256 micromole per liter
- uric acid, Mean [1]: 305.6 micromole per liter
- uric acid, Max (Day 6): 250 micromole per liter
- uric acid, Max Change from Baseline (Day 6): −12 micromole per liter
- uric acid, Mean Change from Baseline (Day 6): −88.8 micromole per liter
- uric acid, Median (Day 6): 226.0 micromole per liter
- uric acid, Median Change from Baseline (Day 6): −72.6 micromole per liter
- uric acid, Min (Day 6): 155 micromole per liter
- uric acid, Min Change from Baseline (Day 6): −172 micromole per liter
- uric acid, Mean (Day 6): 216.8 micromole per liter
- uric acid, Max (Day 14): 274 micromole per liter
- uric acid, Max Change from Baseline (Day 14): −12 micromole per liter
- uric acid, Mean Change from Baseline (Day 14): −70.6 micromole per liter
- uric acid, Median (Day 14): 237.9 micromole per liter
- uric acid, Median Change from Baseline (Day 14): −74.4 micromole per liter
- uric acid, Min (Day 14): 196 micromole per liter
- uric acid, Min Change from Baseline (Day 14): −131 micromole per liter
- uric acid, Mean (Day 14): 243.9 micromole per liter
- uric acid, Max (Day 21): 333 micromole per liter
- uric acid, Max Change from Baseline (Day 21): 65 micromole per liter
- uric acid, Mean Change from Baseline (Day 21): −16.4 micromole per liter
- uric acid, Median (Day 21): 291.5 micromole per liter
- uric acid, Median Change from Baseline (Day 21): −23.8 micromole per liter
- uric acid, Min (Day 21): 250 micromole per liter
- uric acid, Min Change from Baseline (Day 21): −83 micromole per liter
- uric acid after the end of treatment (Day 21, last follow-up visit): returned to Day 0 values by Day 21
- uric acid, Mean (Day 21): 289.2 micromole per liter
- serum uric acid levels following the start of treatment (all 8 subjects): decreased in all subjects; also recorded: a decrease in serum uric acid levels was observed in all subjects
- mean uric acid levels versus normal range (during the study): remained within the normal range
